Assay results taken from ChEMBL document CHEMBL5360555, “Structure-based discovery of novel α-aminoketone derivatives as dual p53-MDM2/MDMX inhibitors for the treatment of cancer” (Eur J Med Chem, 2023).

Experiments:
[1] = target: E3 ubiquitin-protein ligase Mdm2 (Homo sapiens, UniProt Q00987); assay: Binding affinity to MDM2 (1 to 118 residues) (unknown origin) assessed as inhibition constant incubated for 1 hr measured by fluorescence polarization assay
HCT-116 [2] = assay: Antiproliferative activity against human HCT-116 cells overexpressing MDM2 assessed as cell growth inhibition incubated at 10 uM for 72 hrs by CCK-8 assay relative to control; type: functional
SH-SY5Y [3] = assay: Antiproliferative activity against human SH-SY5Y cells overexpressing MDMX assessed as cell growth inhibition incubated at 10 uM for 72 hrs by CCK-8 assay relative to control; type: functional
HCT-116 [4] = assay: Antiproliferative activity against human HCT-116 cells overexpressing MDM2 assessed as cell growth inhibition incubated for 72 hrs by CCK-8 assay; type: functional, cell-based; conditions: HCT-116, 72 h
SH-SY5Y [5] = assay: Antiproliferative activity against human SH-SY5Y cells overexpressing MDMX assessed as cell growth inhibition incubated for 72 hrs by CCK-8 assay; type: functional, cell-based
[6] = Antiproliferative activity against human HCT116-p53-null cells overexpressing MDMX assessed as cell growth inhibition incubated for 72 hrs by CCK-8 assay; type: functional, cell-based
SJSA-1 = assay: Antiproliferative activity against human SJSA-1 cells overexpressing MDM2 assessed as cell growth inhibition incubated for 72 hrs by CCK-8 assay; type: functional, cell-based; conditions: SJSA-1, 72 h

Chain of E3 ubiquitin-protein ligase Mdm2 (Q00987 whole entry, the tested form may be a part): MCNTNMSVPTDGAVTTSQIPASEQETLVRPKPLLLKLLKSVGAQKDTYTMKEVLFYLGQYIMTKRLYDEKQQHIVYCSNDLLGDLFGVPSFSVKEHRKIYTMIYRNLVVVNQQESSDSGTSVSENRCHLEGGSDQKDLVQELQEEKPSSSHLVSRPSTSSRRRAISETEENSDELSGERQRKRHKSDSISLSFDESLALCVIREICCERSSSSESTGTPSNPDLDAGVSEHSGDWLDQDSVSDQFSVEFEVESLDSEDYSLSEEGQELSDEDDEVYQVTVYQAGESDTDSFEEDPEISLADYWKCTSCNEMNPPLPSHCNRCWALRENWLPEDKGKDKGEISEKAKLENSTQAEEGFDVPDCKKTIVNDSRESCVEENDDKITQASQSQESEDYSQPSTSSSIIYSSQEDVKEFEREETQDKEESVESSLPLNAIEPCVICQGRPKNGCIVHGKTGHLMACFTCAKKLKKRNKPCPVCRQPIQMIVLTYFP

SMILES | Ki [1] [µM] | inhibition at 10 µM (HCT-116 [2]) [%] | inhibition at 10 µM (SH-SY5Y [3]) [%] | IC50 (HCT-116 [4]) [µM] | IC50 (SH-SY5Y [5]) [µM] | IC50 [6] [µM] | IC50 (SJSA-1) [µM]
O=C(c1ccccc1)C(Cc1ccccc1)C(=O)c1ccccc1 | 25.8 | 11.2 | 9.88 | – | – | – | –
O=C(c1ccc(Cl)cc1)C(Nc1ccccc1)c1ccccc1 (stereo unspecified) | 18.3 | – | – | > 40 | > 40 | – | –
O=C(c1ccc(Cl)cc1)C(Cc1ccccc1Cl)C(=O)c1cc(F)ccc1F (stereo unspecified) | 15.1 | 25.4 | 22.7 | – | – | – | –
COC(=O)CCC(=O)N(c1ccc(Cl)cc1)C(C(=O)c1ccc(Cl)cc1)c1ccc(F)cc1Cl (stereo unspecified) | 1.39 | – | – | 19.6 | 20.8 | 32.4 | 18.9
O=C(c1ccc(Cl)cc1)C(Nc1cc(F)cc(F)c1)c1ccc(Cl)c(Cl)c1 (stereo unspecified) | 6.86 | – | – | 13.5 | 13.1 | – | –
O=C(c1ccc(Cl)cc1)C(Nc1ccc(F)cc1)c1ccc(F)cc1Cl (stereo unspecified) | 7.34 | – | – | 15.6 | 17.2 | – | –
COC(=O)CCCCC(=O)N(c1ccc(Cl)cc1)C(C(=O)c1ccc(Cl)cc1)c1ccc(F)cc1Cl (stereo unspecified) | 0.82 | – | – | 14.1 | 13.7 | 37.2 | 12.3
O=C(c1ccc(Cl)cc1)C(Nc1cccc(Cl)c1)c1ccc(F)cc1Cl (stereo unspecified) | 6.92 | – | – | 16.6 | 14.1 | – | –
Cc1cc(Cl)cc(NC(C(=O)c2ccc(F)cc2)c2ccc(F)c(Cl)c2)c1 (stereo unspecified) | 19.7 | – | – | 18.5 | 18.2 | – | –
O=C(c1ccc(Br)cc1)C(Nc1ccc(Cl)cc1)c1ccc(Cl)cc1 (stereo unspecified) | 13.2 | – | – | 21.9 | 20.4 | – | –
O=C(c1ccc(Cl)cc1)C(Cc1cccc(Cl)c1)C(=O)c1cc(F)ccc1F (stereo unspecified) | 6.02 | 51.8 | 48.1 | – | – | – | –
O=C(c1ccc(Cl)cc1)C(Cc1cccc(C(F)(F)F)c1)C(=O)c1cc(F)ccc1F (stereo unspecified) | 13.4 | 48.4 | 42.9 | – | – | – | –
O=C(c1ccc(Cl)cc1)C(Nc1ccc(Cl)cc1)c1ccc(F)c(Cl)c1 (stereo unspecified) | 24.2 | – | – | 29.2 | 21.3 | – | –
O=C(c1ccc(Cl)cc1)C(Cc1ccc(Cl)cc1)C(=O)c1cc(F)ccc1F (stereo unspecified) | 23.5 | 5.64 | 10.9 | – | – | – | –
O=C(c1ccc(Cl)cc1)C(Nc1cc(F)cc(F)c1)c1ccc(Cl)cc1F (stereo unspecified) | 2.45 | – | – | 13.3 | 13.6 | – | –
COc1ccc(C(=O)C(Nc2ccc(C)cc2)c2ccc(OC)cc2)cc1 (stereo unspecified) | 16.5 | – | – | 33 | 32.8 | – | –
O=C(O)CCCCC(=O)N(c1ccc(Cl)cc1)C(C(=O)c1ccc(Cl)cc1)c1ccc(F)cc1Cl (stereo unspecified) | 0.71 | – | – | 10.4 | 9.47 | 26.3 | 11.4
COc1ccc(NC(C(=O)c2ccc(Cl)cc2)c2ccc(F)cc2Cl)cc1 (stereo unspecified) | 27.8 | – | – | 30.1 | 29.3 | – | –
O=C(c1ccc(Cl)cc1)C(Cc1cc2ccccc2cn1)C(=O)c1cc(F)ccc1F (stereo unspecified) | 21.8 | 36.7 | 9.44 | – | – | – | –
Cc1cccc(CC(C(=O)c2ccc(Cl)cc2)C(=O)c2cc(F)ccc2F)c1 (stereo unspecified) | 22.5 | 33.7 | 24.6 | – | – | – | –

SMILES | Ki [1] [µM] | inhibition at 10 µM (HCT-116 [2]) [%] | inhibition at 10 µM (SH-SY5Y [3]) [%] | IC50 (HCT-116 [4]) [µM] | IC50 (SH-SY5Y [5]) [µM] | IC50 [6] [µM] | IC50 (SJSA-1) [µM]
COC(=O)/C=C/C(=O)N(c1ccc(Cl)cc1)C(C(=O)c1ccc(Cl)cc1)c1ccc(F)cc1Cl (stereo unspecified) | 1.46 | – | – | 18.9 | 19.5 | 37.1 | 17.4
O=C(c1ccc(Cl)cc1)C(Nc1cccc(Cl)c1F)c1ccc(Cl)c(Cl)c1 (stereo unspecified) | 2.13 | – | – | 11.1 | 11 | – | –
O=C(c1ccc(F)cc1)C(Nc1ccc(Cl)cc1)c1ccc(Cl)cc1 (stereo unspecified) | 12.3 | – | – | 18.8 | 15 | – | –
O=C(c1ccc(Cl)cc1)C(Nc1ccc(Cl)cc1)c1cc(F)ccc1F (stereo unspecified) | 14.9 | – | – | 21.5 | 21.8 | – | –
O=C(c1ccc(Cl)cc1)C(Nc1ccc(Cl)cc1)c1ccc(F)cc1Cl (stereo unspecified) | 0.91 | – | – | 11.7 | 9.84 | – | –
O=C(c1ccc(Cl)cc1)C(Cc1cccc(F)c1)C(=O)c1cc(F)ccc1F (stereo unspecified) | 12.8 | 14.3 | 18.9 | – | – | – | –
O=C(O)CCC(=O)N(c1ccc(Cl)cc1)C(C(=O)c1ccc(Cl)cc1)c1ccc(F)cc1Cl (stereo unspecified) | 1.07 | – | – | 14.2 | 8.13 | 36.4 | 12
O=C(O)/C=C/C(=O)N(c1ccc(Cl)cc1)C(C(=O)c1ccc(Cl)cc1)c1ccc(F)cc1Cl (stereo unspecified) | 1.1 | – | – | 15.4 | 15 | 31.3 | 15.6
O=C(c1ccc(Cl)cc1)C(Cc1ccc(-c2ccccc2)cc1)C(=O)c1cc(F)ccc1F (stereo unspecified) | 24.5 | 29.9 | 13.2 | – | – | – | –
O=C(c1ccc(Cl)cc1)C(Nc1ccc(Cl)c(Cl)c1)c1ccc(Cl)c(Cl)c1 (stereo unspecified) | 4.29 | – | – | 12.3 | 14.4 | – | –
O=C(c1ccc(Cl)cc1)C(Cc1ccc(Cl)nc1)C(=O)c1cc(F)ccc1F (stereo unspecified) | 15.3 | 39.4 | 20.1 | – | – | – | –
O=C(O)CCCC(=O)N(c1ccc(Cl)cc1)C(C(=O)c1ccc(Cl)cc1)c1ccc(F)cc1Cl (stereo unspecified) | 0.78 | – | – | 10.1 | 11.4 | 29.6 | 9.83
Cc1cc(Cl)cc(NC(C(=O)c2ccc(Cl)cc2)c2ccc(F)c(Cl)c2)c1 (stereo unspecified) | 17.4 | – | – | 16.4 | 17.5 | – | –
O=C(c1ccc(Cl)cc1)C(Cc1cc(Cl)cc(Cl)c1)C(=O)c1cc(F)ccc1F (stereo unspecified) | 7.69 | 33.5 | 9.49 | – | – | – | –
O=C(c1ccc(Cl)cc1)C(Nc1ccc(Cl)cc1)c1cc(F)cc(F)c1 (stereo unspecified) | 24.7 | – | – | > 40 | > 40 | – | –
COc1cccc(CC(C(=O)c2ccc(Cl)cc2)C(=O)c2cc(F)ccc2F)c1 (stereo unspecified) | 14.6 | 26.3 | 18.3 | – | – | – | –
O=C(c1ccccc1)C(Nc1ccccc1)c1ccccc1 (stereo unspecified) | 38.2 | – | – | > 40 | > 40 | – | –
COC(=O)CCCC(=O)N(c1ccc(Cl)cc1)C(C(=O)c1ccc(Cl)cc1)c1ccc(F)cc1Cl (stereo unspecified) | 1.15 | – | – | 16.1 | 14.2 | 28.2 | 14.9
O=C(c1ccc(Cl)cc1)C(Cc1ccsc1)C(=O)c1cc(F)ccc1F (stereo unspecified) | 14 | 31.8 | 15.3 | – | – | – | –
COc1ccc(C(=O)C(Nc2ccccc2)c2ccccc2)cc1 (stereo unspecified) | 25.8 | – | – | > 40 | > 40 | – | –
